# Assay results taken from patent US10253002B2, “Compounds and methods of treating infections” (Neoculi Pty Ltd., priority 2013, dated 2019).
# How the values were obtained:
# Assay in all cases: Broth microdilution MIC, Example 7 (NCL812 and analogues)
# VRE = assay type: cell-based, Enterococcus spp.; details: for MIC (μg/ml) at 24 hours, VRE 1: isolate VRE 1; for MIC (μg/ml) at 24 hours, VRE 1 / MIC (μg/ml) at 24 hours, VRE 2: 1st and 2nd replicate rows; for MIC (μg/ml) at 24 hours, VRE 2: isolate VRE 2
# Procedure: (§1) Minimum inhibitory concentrations (μg/ml) were determined using the broth microdilution method recommended by the Clinical and Laboratory Standards Institute (CLSI). MIC breakpoints were determined by visual assessment and then confirmed using an ELISA plate reader, measuring absorbance levels at 600 nm. Bacterial growth (turbidity) in the wells with antimicrobial was compared with the amount of growth (turbidity) in the growth-control well (containing no antimicrobial). All isolates were tested in duplicate, if there was a difference of greater than one two-fold dilution in the results, the test was repeated a third time. The purity of the isolates was closely monitored during testing by subculturing the prepared bacterial inoculum onto SBA (sheep blood agar). […] The MIC50, MIC20 and MIC range (minimum and maximum) were calculated for each of the bacterial groups.
# (§2) MICs were determined against two MRSA strains, two VRE strains and one strain each of E. coli and Pseudomonas aeruginosa.
# Pseudomonas aeruginosa = assay type: cell-based; details: 24 hours; 1st and 2nd replicate rows
# MRSA = assay type: cell-based, Staphylococcus aureus; details: 24 hours, 1st and 2nd replicate rows; for MIC (μg/ml) at 24 hours, MRSA 1: isolate MRSA 1; for MIC (μg/ml) at 24 hours, MRSA 2: isolate MRSA 2
# Procedure: as §1, §2
# Escherichia coli = assay type: cell-based; details: 24 hours; 1st and 2nd replicate rows
SMILES,"MIC (μg/ml) at 24 hours, VRE 1 (VRE) [µg/mL]","MIC (μg/ml) at 24 hours, VRE 2 (VRE) [µg/mL]","MIC (μg/ml) at 24 hours, P. aeruginosa (Pseudomonas aeruginosa) [µg/mL]","MIC (μg/ml) at 24 hours, MRSA 1 (MRSA) [µg/mL]","MIC (μg/ml) at 24 hours, MRSA 2 (MRSA) [µg/mL]","MIC (μg/ml) at 24 hours, E. coli (Escherichia coli) [µg/mL]","activity against VRE among analogues (VRE; MIC testing, two VRE strains)"
COc1cccc(/C=N/NC(=O)N/N=C/c2cccc(OC)c2)c1 [NCL010],>128,>128,>128,>128,>128,>128,–
O=C(NN=Cc1cccc(C(F)(F)F)c1)NN=Cc1cccc(C(F)(F)F)c1 [NCL011],>128,32,>128,>128,>128,>128,greatest activity
O=C(NN=Cc1ccc(C(F)(F)F)cc1)NN=Cc1ccc(C(F)(F)F)cc1 [NCL012],>128,>128,>128,>128,>128,>128,–
O=C(N/N=C/c1ccccc1C(F)(F)F)N/N=C/c1ccccc1C(F)(F)F [NCL013],>128,>128,>128,>128,>128,>128,–
NC(=O)N/N=C/c1ccc(Cl)cc1 [NCL014],>128,>128,>128,>128,>128,>128,–
Cl.N=C(N)N/N=C/c1ccccc1Cl [NCL015],>128,128,>128,>128,>128,>128,–
Cl.N=C(N)N/N=C/c1ccccc1F [NCL016],>128,>128,>128,>128,>128,>128,–
Cl.N=C(N)NN=Cc1cccc(F)c1 [NCL017],>128,>128,>128,>128,>128,>128,–
Cc1ccccc1/C=N/NC(=O)N/N=C/c1ccccc1C [NCL018],>128,>128,>128,>128,>128,>128,–
Cc1cccc(C=NNC(=O)NN=Cc2cccc(C)c2)c1 [NCL019],>128,>128,>128,>128,>128,>128,–
Cl.N=C(N/N=C/c1ccccc1Cl)N/N=C/c1ccccc1Cl [NCL020],>128,>128,>128,>128,>128,>128,–
Cl.N=C(NN=Cc1ccccc1F)NN=Cc1ccccc1F [NCL022],>128,>128,>128,>128,>128,>128,–
Cl.N#Cc1ccc(C=NNC(=N)NN=Cc2ccc(C#N)cc2)cc1 [NCL024],>128,>128,>128,>128,>128,>128,–
Cl.N#Cc1ccccc1C=NNC(=N)NN=Cc1ccccc1C#N [NCL025],>128,>128,>128,>128,>128,>128,–
Cl.N#Cc1cccc(C=NNC(=N)NN=Cc2cccc(C#N)c2)c1 [NCL026],>128,>128,>128,>128,>128,>128,–
COc1ccc(/C=N/NC(=N)N/N=C/c2ccc(OC)cc2)cc1.Cl [NCL027],>128,>128,>128,>128,>128,>128,–
COc1ccccc1C=NNC(=N)NN=Cc1ccccc1OC.Cl [NCL028],>128,128,>128,>128,>128,>128,–
Cl.N#Cc1ccc(/C=N/NC(=N)N)cc1 [NCL031],>128,>128,>128,>128,>128,>128,–
Cl.N#Cc1ccccc1/C=N/NC(=N)N [NCL032],>128,>128,>128,>128,>128,>128,–
Cl.N#Cc1cccc(/C=N/NC(=N)N)c1 [NCL033],>128,>128,>128,>128,>128,>128,–
COc1ccccc1/C=N/NC(=N)N.Cl [NCL034],>128,>128,>128,>128,>128,>128,–
Cl.N=C(N/N=C/c1ccccc1C(F)(F)F)N/N=C/c1ccccc1C(F)(F)F [NCL036],>128,>128,>128,>128,>128,>128,–
